# Target: T1, mGlyT-1b (Mus musculus, UniProt P28571)
# T1 construct: host or cells: Flp-in-CHO
# T1 sequence (P28571 1-651 isoform P28571-2): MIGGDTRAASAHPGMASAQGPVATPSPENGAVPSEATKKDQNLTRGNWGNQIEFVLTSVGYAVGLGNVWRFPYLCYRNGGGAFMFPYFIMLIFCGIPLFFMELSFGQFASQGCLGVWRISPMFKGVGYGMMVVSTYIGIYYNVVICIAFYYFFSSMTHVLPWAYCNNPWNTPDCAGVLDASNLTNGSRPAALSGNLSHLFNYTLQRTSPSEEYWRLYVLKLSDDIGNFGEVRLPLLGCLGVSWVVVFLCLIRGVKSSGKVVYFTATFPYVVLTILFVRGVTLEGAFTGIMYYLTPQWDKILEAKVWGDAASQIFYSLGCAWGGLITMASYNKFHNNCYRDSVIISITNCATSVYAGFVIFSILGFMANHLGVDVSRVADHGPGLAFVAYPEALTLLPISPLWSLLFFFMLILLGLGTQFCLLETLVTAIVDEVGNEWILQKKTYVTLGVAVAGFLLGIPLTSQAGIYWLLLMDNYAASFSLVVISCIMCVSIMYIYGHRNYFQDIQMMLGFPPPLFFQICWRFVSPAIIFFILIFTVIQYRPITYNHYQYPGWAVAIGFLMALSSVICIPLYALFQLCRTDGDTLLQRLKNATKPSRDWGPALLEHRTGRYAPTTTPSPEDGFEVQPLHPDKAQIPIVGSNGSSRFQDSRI
# Assay: Glycine uptake inhibition assay (mGlyT-1b)
# Assay type: cell-based
# Settings: inhibition of [3H]-glycine uptake in Flp-in-CHO cells transfected with mGlyT-1b cDNA; 20 min preincubation at 22° C.; read-out: IC50 (μM) at GlyT-1
# Experimental: DMEM complete medium: Nutrient mixture F-12 (Gibco Life-technologies), fetal bovine serum (FBS) 5%, (Gibco life technologies), Penicillin/Streptomycin1% (Gibco life technologies), Hygromycin 0.6 mg/ml (Gibco life technologies), Glutamine 1 mM Gibco life technologies)
# Uptake buffer (UB): 150 mM NaCl, 10 mM Hepes-Tris, pH 7.4, 1 mM CaCl2, 2.5 mM KCl, 2.5 mM MgSO4, 10 mM (+) D-glucose.
# Flp-in™-CHO (Invitrogen Cat n^o R758-07) cells stably transfected with mGlyT1b cDNA.
# Glycine Uptake Inhibition Assay (mGlyT-1b)
# On day 1 mammalian cells, (Flp-in™-CHO), transfected with mGlyT-1b cDNA, were plated at the density of 40,000 cells/well in complete F-12 medium, without hygromycin in 96-well culture plates. On day 2, the medium was aspirated, and the cells were washed twice with uptake buffer (UB). The cells were then incubated for 20 min at 22° C. with either (i) no potential competitor, (ii) 10 mM non-radioactive glycine, (iii) a concentration of a potential inhibitor. A range of concentrations of the potential inhibitor was used to generate data for calculating the concentration of inhibitor resulting in 50% of the effect (e.g. IC50, the concentration of the competitor inhibiting glycine uptake of 50%). A solution was then immediately added containing [^3H]-glycine 60 nM (11-16 Ci/mmol) and 25 μM non-radioactive glycine. The plates were incubated with gentle shaking, and the reaction was stopped by aspiration of the mixture and washing (three times) with ice-cold UB. The cells were lysed with scintillation liquid, shaken 3 hours, and the radioactivity in the cells was counted using a scintillation counter.
row,IC50 [µM],SMILES
1,0.014,"C[C@@H](Oc1ccc(S(C)(=O)=O)cc1C(=O)N1Cc2cc(C(F)(F)F)cnc2C1)C(F)(F)F [Example 139, [5-Methanesulfonyl-2-((R)-2,2,2-trifluoro-1-methyl-ethoxy)-phenyl]-(3-trifluoro-methyl-5,7-dihydro-pyrrolo[3,4-b]pyridin-6-yl)-methanone]"
2,0.045,"Cc1nc2c(cc1C(F)(F)F)CN(C(=O)c1cc(S(C)(=O)=O)ccc1O[C@@H](C)C(F)(F)F)C2 [Example 163, [5-Methanesulfonyl-2-((S)-2,2,2-trifluoro-1-methyl-ethoxy)-phenyl]-(2-methyl-3-trifluoromethyl-5,7-dihydro-pyrrolo[3,4-b]pyridin-6-yl)-methanone]"
3,0.033,"Cc1csc(-c2ccc3c(c2)CN(C(=O)c2cc(S(C)(=O)=O)ccc2O[C@@H](C)C(F)(F)F)C3)n1 [Example 168, [5-Methanesulfonyl-2-((S)-2,2,2-trifluoro-1-methyl-ethoxy)-phenyl]-[5-(4-methyl-thiazol-2-yl)-1,3-dihydro-isoindol-2-yl]-methanone]"
4,0.003,"Cc1cc(-c2ccc3c(c2)CN(C(=O)c2cc(S(C)(=O)=O)ccc2O[C@@H](C)C(F)(F)F)C3)ccn1 [Example 169, [5-Methanesulfonyl-2-((S)-2,2,2-trifluoro-1-methyl-ethoxy)-phenyl]-[5-(2-methyl-pyridin-4-yl)-1,3-dihydro-isoindol-2-yl]-methanone]"
5,0.048,"Cc1cc(-c2ccc3c(c2)CN(C(=O)c2cc(S(C)(=O)=O)ccc2O[C@@H](C)C(F)(F)F)C3)cs1 [Example 170, [5-Methanesulfonyl-2-((S)-2,2,2-trifluoro-1-methyl-ethoxy)-phenyl]-[5-(5-methyl-thiophen-3-yl)-1,3-dihydro-isoindol-2-yl]-methanone]"
6,0.03,"C[C@H](Oc1ccc(S(C)(=O)=O)cc1C(=O)N1Cc2ccc(-c3nccs3)cc2C1)C(F)(F)F [Example 172, [5-Methanesulfonyl-2-((S)-2,2,2-trifluoro-1-methyl-ethoxy)-phenyl]-(5-thiazol-2-yl-1,3-dihydro-isoindol-2-yl)-methanone]"
7,0.037,"CCSc1cc2c(cc1C(F)(F)F)CN(C(=O)c1cc(S(C)(=O)=O)ccc1O[C@@H](C)C(F)(F)F)C2 [Example 217, (5-Ethylsulfanyl-6-trifluoromethyl-1,3-dihydro-isoindol-2-yl)-[5-methanesulfonyl-2-((S)-2,2,2-trifluoro-1-methyl-ethoxy)-phenyl]-methanone]"
8,0.04,"COc1cc2c(cc1Cl)CN(C(=O)c1cc(S(C)(=O)=O)ccc1O[C@H](C)C(F)(F)F)C2 [Example 218, (5-Chloro-6-methoxy-1,3-dihydro-isoindol-2-yl)-[5-methane-sulfonyl-2-((R)-2,2,2-trifluoro-1-methyl-ethoxy)-phenyl]-methanone]"
9,0.019,"C[C@H](Oc1ccc(S(C)(=O)=O)cc1C(=O)N1Cc2cc(F)c(C(F)(F)F)cc2C1)C(F)(F)F [Example 224, (5-Fluoro-6-trifluoromethyl-1,3-dihydro-isoindol-2-yl)-[5-methanesulfonyl-2-((S)-2,2,2-trifluoro-1-methyl-ethoxy)-phenyl]-methanone]"

# Further lines, the compound ahead of its results:
row,SMILES,IC50 [µM]
1,"CC(C)COc1ccc(S(C)(=O)=O)cc1C(=O)N1Cc2cc(C(F)(F)F)cnc2C1 [Example 125, (2-Isobutoxy-5-methanesulfonyl-phenyl)-(3-trifluoromethyl-5,7-dihydro-pyrrolo[3,4-b]pyridin-6-yl)-methanone]",0.03
2,"CS(=O)(=O)c1ccc(-c2ccc(F)cc2)c(C(=O)N2Cc3cc(C(F)(F)F)cnc3C2)c1 [Example 140, (4′-Fluoro-4-methanesulfonyl-biphenyl-2-yl)-(3-trifluoromethyl-5,7-dihydro-pyrrolo[3,4-b]pyridin-6-yl)-methanone]",0.036
3,"CS(=O)(=O)c1ccc(-c2ccc(F)c(F)c2)c(C(=O)N2Cc3cnc(C(F)(F)F)cc3C2)c1 [Example 146, (3′,4′-Difluoro-4-methanesulfonyl-biphenyl-2-yl)-(6-trifluoromethyl-1,3-dihydro-pyrrolo[3,4-c]pyridin-2-yl)-methanone]",0.047
4,"CS(=O)(=O)c1ccc(-c2ccc(F)c(F)c2)c(C(=O)N2Cc3cc(C(F)(F)F)cnc3C2)c1 [Example 148, (3′,4′-Difluoro-4-methanesulfonyl-biphenyl-2-yl)-(3-trifluoromethyl-5,7-dihydro-pyrrolo[3,4-b]pyridin-6-yl)-methanone]",0.032
5,"CS(=O)(=O)c1ccc(OCC(F)(F)C(F)(F)F)c(C(=O)N2Cc3cnc(C(F)(F)F)cc3C2)c1 [Example 155, [5-Methanesulfonyl-2-(2,2,3,3,3-pentafluoro-propoxy)-phenyl]-(6-trifluoromethyl-1,3-dihydro-pyrrolo[3,4-c]pyridin-2-yl)-methanone]",0.044
6,"CS(=O)(=O)c1ccc(OCC(F)(F)C(F)F)c(C(=O)N2Cc3cnc(C(F)(F)F)cc3C2)c1 [Example 156, [5-Methanesulfonyl-2-(2,2,3,3-tetrafluoro-propoxy)-phenyl]-(6-trifluoromethyl-1,3-dihydro-pyrrolo[3,4-c]pyridin-2-yl)-methanone]",0.047
7,"CS(=O)(=O)c1ccc(OCC(F)(F)C(F)(F)F)c(C(=O)N2Cc3cc(C(F)(F)F)cnc3C2)c1 [Example 157, [5-Methanesulfonyl-2-(2,2,3,3,3-pentafluoro-propoxy)-phenyl]-(3-trifluoromethyl-5,7-dihydro-pyrrolo[3,4-b]pyridin-6-yl)-methanone]",0.025
8,"CS(=O)(=O)c1ccc(OCC(F)(F)C(F)F)c(C(=O)N2Cc3cc(C(F)(F)F)cnc3C2)c1 [Example 158, [5-Methanesulfonyl-2-(2,2,3,3-tetrafluoro-propoxy)-phenyl]-(3-trifluoromethyl-5,7-dihydro-pyrrolo[3,4-b]pyridin-6-yl)-methanone]",0.024
9,"CS(=O)(=O)c1ccc(-c2ccccc2)c(C(=O)N2CCc3c(C#N)cccc32)c1 [Example 204, 1-(4-Methanesulfonyl-biphenyl-2-carbonyl)-2,3-dihydro-1H-indole-4-carbonitrile]",0.019
10,"COC(=O)c1cccc2c1CCN2C(=O)c1cc(S(C)(=O)=O)ccc1O[C@@H](C)C(F)(F)F [Example 205, 1-[5-Methanesulfonyl-2-((S)-2,2,2-trifluoro-1-methyl-ethoxy)-benzoyl]-2,3-dihydro-1H-indole-4-carboxylic acid methyl ester]",0.046
11,"COC(=O)c1cccc2c1CCN2C(=O)c1cc(S(C)(=O)=O)ccc1OC(C)C [Example 206, 1-(2-Isopropoxy-5-methanesulfonyl-benzoyl)-2,3-dihydro-1#H!-indole-4-carboxylic acid methyl ester]",0.041
12,"C[C@H](Oc1ccc(S(C)(=O)=O)cc1C(=O)N1CCc2c(Br)cccc21)C(F)(F)F [Example 211, (4-Bromo-2,3-dihydro-indol-1-yl)-[5-methanesulfonyl-2-((S)-2,2,2-trifluoro-1-methyl-ethoxy)-phenyl]-methanone]",0.034
13,"COc1cc2c(cc1Cl)CN(C(=O)c1cc(S(C)(=O)=O)ccc1OCC(C)C)C2 [Example 221, (5-Chloro-6-methoxy-1,3-dihydro-isoindol-2-yl)-(2-isobutoxy-5-methanesulfonyl-phenyl)-methanone]",0.022
14,CCOc1cc2c(cc1C(F)(F)F)CN(C(=O)c1cc(S(C)(=O)=O)ccc1OC(C)C)C2 [Example 240],0.0456
15,"CC(C)COc1ccc(S(C)(=O)=O)cc1C(=O)N1Cc2cc(Cl)c(N3CCOCC3)cc2C1 [Example 248, (5-Chloro-6-morpho-lin-4-yl-1,3-dihydro-isoindol-2-yl)-(2-isobutoxy-5-methanesulfonyl-phenyl)-methanone]",0.026
16,"CS(=O)(=O)c1ccc(OCC2CCC2)c(C(=O)N2Cc3cc(Cl)c(N4CCOCC4)cc3C2)c1 [Example 249, (5-Chloro-6-morpho-lin-4-yl-1,3-dihydro-isoindol-2-yl)-(2-cyclobutylmethoxy-5-methanesulfonyl-phenyl)-methanone]",0.022

# From patent US8188139B2, “Heterocyclic-substituted phenyl methanones” (Hoffman-La Roche Inc., priority 2005, dated 2012)
